The test system of series [1] is Gram-positive and Gram-negative bacteria. Nature of the series: Geometric mean of MICs (GMIC) over tested strains. The settings on record: geometric mean of MICs against all tested bacteria. It counts as cell-based. Here is the method:
(§1) The minimal inhibitory concentrations (MIC) of peptides were determined using microdilution assay in Müller–Hinton (MH) broth in general accordance with the guidelines of the European Committee for Antimicrobial Susceptibility Testing. Test plates were additionally pretreated with 0.1% bovine serum albumin (BSA) in distilled H2O (incubated for 1 h at 37°C) to reduce possible non-specific binding of peptides to the plastic surface of the wells, as proposed for AMP activity measuring ([Tossi et al., 1997]; [Wiegand et al., 2008]). Two-fold serial dilutions of peptides starting with 2 × stock concentration were prepared in sterile 10 mM sodium phosphate (Na-P) buffer, pH 7.4, with 0.1% BSA. Thus, final solutions contained 50% of Na-P diluted peptide and 50% of MH broth with bacteria. Bacteria for testing were grown overnight, then transferred into a fresh portion of 2.1% MH medium and additionally incubated for 2–3 h to obtain bacterial culture in its mid-logarithmic growth phase, which was diluted down to the final concentration of 1 × 10^6 CFU/ml. Concentration of bacteria in growth medium was calculated based on its absorbance at 620 nm.
After 20 h of incubation of AMPs with bacteria MICs were determined as lowest concentrations of AMPs completely preventing the visible growth of bacteria. […] Final MIC values were calculated as medians based on the results of 3–5 independent experiments.

Series [2] in a line: MTT test. It counts as cell-based. As to conditions: human, serum-free RPMI-1640, overnight incubation, mean ± SD of three independent tests, read-out: IC50 of cytotoxic action toward human PBMC. Here is the method: Cytotoxic activity of peptides toward various types of eukaryotic cells was assessed using the standard MTT [3-(4,5-Dimethylthiazol-2-yl)-2,5-diphenyltetrazolium bromide] test ([Mosmann, 1983]). Human peripheral blood mononuclear cells (PBMC) were isolated from the peripheral blood of healthy donors. Whole heparinized blood diluted 3-fold with sterile PBS was carefully layered upon the 5 ml of the sterile Ficoll-400 (Pharmacia, Sweden) with a density of 1.077 in a sterile 50 ml conical tube and then centrifuged at 600 g and 4°C for 40 min. The mononuclear “ring” remaining above the Ficoll was collected using a transfer pipette and placed in another tube. Cells were washed twice with sterile PBS, resuspended in RPMI-1640 culture medium and immediately used for the test. Tumor cell lines were purchased from Biolot (Saint Petersburg, Russia) and cultured at 37°C and 5% CO2 in RPMI-1640 medium (Biolot, Saint Petersburg, Russia) supplemented with 10% fetal bovine serum, glutamine, and penicillin-streptomycin combination. For the experiments, cells were washed from the medium they were growing in and resuspended in serum- and antibiotic-free RPMI-1640. Cells were added at not less than 2 × 10^4 per well in sterile flat bottom 96-well microplates containing serial dilutions of tested peptides in RPMI-1640. For the positive control (100% viable cells), RPMI-1640 medium was used instead of the peptide solution, whereas for the negative control (0% viable cells) medium replaced both peptide and cells. Test plates were incubated at 37°C and 5% CO2 overnight, after which MTT metabolic marker in PBS (5 mg/ml) was introduced into each well. After an additional 4 h incubation, the reaction was stopped by adding isopropanol supplemented with 0.04 M HCl, in which the formazan crystals (formed as a result of MTT reduction in presence of metabolically active cells) were dissolved, and OD at 540 nm was measured. Background absorbance at 690 nm was subtracted from the results to countervail any unspecific OD fluctuations. The % of surviving cells was found as:
(2) Survival(%)=(ODsample−OD0% viable)/(OD100% viable−OD0% viable)×100%,
where ODsample, OD0% viable, and OD100% viable are respectively values of the OD at 540 nm minus the OD at 690 nm for the test sample and negative or positive controls. IC50 toxicity values were determined by nonlinear regression analysis of the dose response curves using Sigma Plot 11 (Systat Software Inc., USA). The experiments were repeated three times, with 3 parallels of samples and 4–6 parallels of controls each time.
Background: Tetrazolium dyes change colour on reduction, which living cells bring about.

For series [3], the system named is E. coli ML-35p. Nature of the series: Broth microdilution assay (MIC). As to conditions: 50% MH broth/50% 10 mM Na-P buffer pH 7.4 with 0.1% BSA, 1×10^6 CFU/ml, 20 h, median of 3–6 independent experiments in triplicate. It counts as cell-based, Escherichia coli. The method, then:
as §1
After 20 h of incubation of AMPs with bacteria MICs were determined as lowest concentrations of AMPs completely preventing the visible growth of bacteria. Tests were performed in 60-well Terasaki microplates (10 µl end volume, V-shaped bottom; Sarstedt, Germany); dilutions in each test were made in triplicate. Final MIC values were calculated as medians based on the results of 3–5 independent experiments.

Series [4] relates to U937. Nature of the series: MTT test. The format is cell-based, human. The settings on record: serum-free RPMI-1640, overnight incubation, mean ± SD of three independent tests, read-out: IC50 of cytotoxic action toward U937. The method, then:
Cytotoxic activity of peptides toward various types of eukaryotic cells was assessed using the standard MTT [3-(4,5-Dimethylthiazol-2-yl)-2,5-diphenyltetrazolium bromide] test ([Mosmann, 1983]). Human peripheral blood mononuclear cells (PBMC) were isolated from the peripheral blood of healthy donors. Whole heparinized blood diluted 3-fold with sterile PBS was carefully layered upon the 5 ml of the sterile Ficoll-400 (Pharmacia, Sweden) with a density of 1.077 in a sterile 50 ml conical tube and then centrifuged at 600 g and 4°C for 40 min. The mononuclear “ring” remaining above the Ficoll was collected using a transfer pipette and placed in another tube. Cells were washed twice with sterile PBS, resuspended in RPMI-1640 culture medium and immediately used for the test. Tumor cell lines were purchased from Biolot (Saint Petersburg, Russia) and cultured at 37°C and 5% CO2 in RPMI-1640 medium (Biolot, Saint Petersburg, Russia) supplemented with 10% fetal bovine serum, glutamine, and penicillin-streptomycin combination. For the experiments, cells were washed from the medium they were growing in and resuspended in serum- and antibiotic-free RPMI-1640. Cells were added at not less than 2 × 10^4 per well in sterile flat bottom 96-well microplates containing serial dilutions of tested peptides in RPMI-1640. […] After an additional 4 h incubation, the reaction was stopped by adding isopropanol supplemented with 0.04 M HCl, in which the formazan crystals (formed as a result of MTT reduction in presence of metabolically active cells) were dissolved, and OD at 540 nm was measured. Background absorbance at 690 nm was subtracted from the results to countervail any unspecific OD fluctuations. […]
where ODsample, OD0% viable, and OD100% viable are respectively values of the OD at 540 nm minus the OD at 690 nm for the test sample and negative or positive controls. IC50 toxicity values were determined by nonlinear regression analysis of the dose response curves using Sigma Plot 11 (Systat Software Inc., USA). […]

In series [5] the test system is P. aeruginosa MDR 522/17. It counts as cell-based, Pseudomonas aeruginosa. As to conditions: MDR 522/17, 24 h. Here is the method:
(§2) Quantification of the biofilms forming in the presence of various concentrations of tested AMPs was performed using the crystal violet assay according to general guidelines ([Merritt et al., 2006]). Tests were performed in polystyrene 96-well plates with U-shaped bottom. Peptides were serially diluted in a bacterial growth medium (MH for A. baumannii or TSB for P. aeruguinosa) in a volume of 50 μl per well. Overnight cultures of tested bacteria in a stationary phase of growth were 50 times diluted and introduced into the experimental wells at the same volume of 50 μl. Samples were incubated for 24 h at 37°C. The content of the wells was then shacked out, the plates were gently washed from unattached planktonic bacteria in still water (poured into a large enough vessel); bacterial cells and matrix components adhered to the walls of the wells were stained with a 0.1% aqueous solution of crystal violet dye: 125 μl of dye solution was put into each well and incubated at room temperature for 10 min. After staining dye solution was removed, the plates were washed with clean water and allowed to air-dry. Finally, the bound dye was redissolved by adding 200 μl of 30% acetic acid into each well, incubating it for 15 min at room temperature, and then thoroughly mixing the content of the wells by pipetting. One hundred and twenty five microliters of crystal violet extract from each well were transferred into a flat-bottomed microtiter plate, and the optical density was measured at a wavelength of 560–595 nm (depending on the maximum of absorption in a particular experiment). Experimental samples were made in quadruplicates, and there were 8–9 repeats of control samples without peptides in each test. Presented results are medians calculated based on 3 independent experiments.

Series [6] deals with A. baumannii 7226/16. It counts as cell-based, Acinetobacter baumannii. As to conditions: 7226/16, 24 h, 2. Here is the method:
as §2, with “After staining dye solution was removed, the plates were washed with clean water and allowed to air-dry. Finally, the bound dye was redissolved by adding 200 μl of 30% acetic acid into each well, incubating it for 15 min at room temperature, and then thoroughly mixing the content of the wells by pipetting.” left out, “Experimental samples were made in quadruplicates, and there were 8–9 repeats of control samples without peptides in each test.” left out

Values after ≈ are worked out from the molar mass of the structure shown. Ends that are not written are not given here. Peptide text beside a SMILES is read from it. A value given as a limit tells only on which side of the number the result lay.

Broadly, the IC50 is the concentration needed to halve the response being measured. By MIC is commonly meant the lowest concentration found to suppress growth.

The compound `CC[C@H](C)[C@H](NC(=O)[C@H](CCCNC(=N)N)NC(=O)[C@@H](NC(=O)[C@H](Cc1ccccc1)NC(=O)[C@@H]1CCCN1C(=O)[C@@H]1CCCN1C(=O)[C@@H]1CCCN1C(=O)[C@H](Cc1c[nH]cn1)NC(=O)[C@@H](NC(=O)[C@H](CCCNC(=N)N)NC(=O)[C@H](CCCNC(=N)N)NC(=O)[C@H](Cc1ccccc1)NC(=O)[C@@H]1CCCN1C(=O)[C@H](CC(C)C)NC(=O)[C@H](CCCNC(=N)N)NC(=O)[C@H](Cc1ccccc1)NC(=O)[C@@H](N)CCCNC(=N)N)[C@@H](C)CC)C(C)C)C(=O)N[C@@H](Cc1c[nH]cn1)C(=O)N1CCC[C@H]1C(=O)N1CCC[C@H]1C(=O)N1CCC[C@H]1C(=O)N[C@@H](Cc1ccccc1)C(=O)N[C@@H](Cc1ccc(O)cc1)C(=O)N[C@@H](CCCNC(=N)N)C(=O)N[C@@H](CCCNC(=N)N)C(=O)N[C@@H](Cc1ccccc1)C(=O)N[C@@H](CC(C)C)C(=O)O` [ChBac3.4-1-COOH (rec)] (H-RFRLPFRRIHPPPFVRIHPPPFYRRFL-OH; N-terminus assumed) displayed a GMIC total in series [1] of 5.0 µM. For the same compound, the IC50 in series [2] turned out to be 40.8 ± 9.1 µM. This compound also had an MIC in series [3] of 4 µM (≈ 14.1 µg/mL).

Consider RIHPPPFYPPFRRFL-NH2 [ChBac3.4 (12-26)], for which the IC50 in series [2] was found to be 43.3 ± 7.7 µM. In series [3], this compound displayed an MIC of 64 µM.

In the case of RFRLPFRRPPIRIH-NH2 [ChBac3.4(1-14)-NH2], the IC50 in series [2] and in series [4] was more than 64 µM throughout. Further, in series [3], the MIC was found to be 8 µM.

“RFRRFRLPFRRIHPPPFVRIHPPPFYRRFL-NH2 [RFR-ChBac3.4-1-NH2]” displayed a Biofilm inhibition in series [5] of 62 ± 1.5%. Also, the IC50 in series [2] came to 18.3 ± 4.1 µM. The compound also gave an MIC in series [3] of 4 µM.

On to “RFRLPFRRPPIRIPPPFYPPFRRFL-NH2 [ChBac3.4(Н-)]”, for which the IC50 in series [2] turned out to be 34.7 ± 7.3 µM. Besides, the MIC in series [3] stood at 4 µM.

For the compound “RFRRFRLPFRRPPIRIH-NH2 [RFR-ChBac3.4 (1-14)-NH2]”, the figures for the Biofilm inhibition in series [5] and in series [6] were 79 ± 5% and 53 ± 3%, respectively. Besides, the IC50 in series [2] and in series [4] was more than 64 µM each time. Also, the MIC in series [3] was found to be 1 µM.

For the origin of these results see publication PMC7604311, “Caprine Bactenecins as Promising Tools for Developing New Antimicrobial and Antitumor Drugs” (Frontiers in Cellular and Infection Microbiology, 2020).
